Reference: ChEMBL document CHEMBL1201862, “PubChem BioAssay data set” (2004)
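Five concentrations, 48 hours, 96-well plates. The concentration for 50% growth inhibition is given as GI50.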 Calls of active or inactive are those of the source. Rule as the data show it: active = GI50 up to about 1.1 µM and inactive = higher. Non-standard residues stand in square brackets, D forms with d. Residues, ends and D or L forms follow the SMILES beside them. β3hI = CC[CH](C)[CH](N)CC(=O)O

Assays:
Assay in all cases: inhibition of tumour cell growth, NCI panel, 48 h
UO-31 = system: UO-31
SK-MEL-2 = system: SK-MEL-2
OVCAR-5 = system: OVCAR-5
A549 = system: A549
NCI-H226 = system: NCI-H226
SW-620 = system: SW-620
KM12 = system: KM12
A498 = system: A498
PC-3 = system: PC-3
HCT-116 = system: HCT-116
K562 = system: K562
COLO 205 = system: COLO 205
OVCAR-3 = system: OVCAR-3
T47D = system: T47D
OVCAR-4 = system: OVCAR-4
RPMI-8226 = system: RPMI-8226
SF-539 = system: SF-539
SNB-75 = system: SNB-75
LOX IMVI = system: LOX IMVI

SMILES | GI50 (UO-31) | GI50 (SK-MEL-2) | GI50 (OVCAR-5) | GI50 (A549) | GI50 (NCI-H226) | GI50 (SW-620) | GI50 (KM12) | GI50 (A498) | GI50 (PC-3) | GI50 (HCT-116) | GI50 (K562) | GI50 (COLO 205) | GI50 (OVCAR-3) | GI50 (T47D) | GI50 (OVCAR-4) | GI50 (RPMI-8226) | GI50 (SF-539) | GI50 (SNB-75) | GI50 (LOX IMVI)
COC1OC2COC(C)(C)OC2C2OC(C)(C)OC12 (stereo not drawn) | > 100 µM (inactive) | > 100 µM (inactive) | > 100 µM (inactive) | 85.1 µM (inactive) | 23.8 µM (inactive) | > 100 µM (inactive) | > 100 µM (inactive) | 55.2 µM (inactive) | 80.5 µM (inactive) | > 100 µM (inactive) | 33.7 µM (inactive) | 46.5 µM (inactive) | > 100 µM (inactive) | > 100 µM (inactive) | 22.2 µM (inactive) | 17 µM (inactive) |  |  | 
COc1ccc(/C=C2\CCC(CNc3ccc(S(N)(=O)=O)cc3)C2=O)cc1 (stereo not drawn) | 5.71 µM (inactive) | 75.7 µM (inactive) | 21.6 µM (inactive) | > 82.8 µM (inactive) | > 69.5 µM (inactive) | 1.95 µM (inactive) | 11.3 µM (inactive) | 44.4 µM (inactive) | 21.9 µM (inactive) | 8.65 µM (inactive) | 1.51 µM (inactive) | 16.6 µM (inactive) | 9.04 µM (inactive) | 17 µM (inactive) | 31.6 µM (inactive) |  | 25.7 µM (inactive) | 32.1 µM (inactive) | 9.89 µM (inactive)
COc1ccc2c(cnc3c4cc(OC)c(OC)cc4ccc23)c1 | > 100 µM (inactive) | > 100 µM (inactive) | > 100 µM (inactive) | > 100 µM (inactive) | > 100 µM (inactive) | > 100 µM (inactive) | > 100 µM (inactive) | > 100 µM (inactive) | > 100 µM (inactive) | > 100 µM (inactive) | > 100 µM (inactive) | > 100 µM (inactive) | > 100 µM (inactive) | > 100 µM (inactive) | > 100 µM (inactive) |  | > 100 µM (inactive) |  | > 100 µM (inactive)
CC(C)=CCC[C@@H](C)C1=C(O)C(O)C(C)=C2N=C(c3ccccc3)C(=O)OC21 (stereo partly drawn) | 5.22 µM (inactive) | 1.61 µM (inactive) | 18.1 µM (inactive) | 2.65 µM (inactive) | 2.88 µM (inactive) | 3.16 µM (inactive) | 4.44 µM (inactive) | 2.81 µM (inactive) | 8.36 µM (inactive) | 4.03 µM (inactive) | 1.24 µM (inactive) | 9.38 µM (inactive) | 1.24 µM (inactive) | 1.21 µM (inactive) | 4.41 µM (inactive) |  | 4.33 µM (inactive) | 3.7 µM (inactive) | 4.71 µM (inactive)
CC(C)C1CN1CC(O)Cn1ccnc1[N+](=O)[O-] (stereo not drawn) | > 100 µM (inactive) | > 100 µM (inactive) | > 100 µM (inactive) | > 100 µM (inactive) | > 100 µM (inactive) | > 100 µM (inactive) | > 100 µM (inactive) | > 100 µM (inactive) | > 100 µM (inactive) | > 100 µM (inactive) | > 100 µM (inactive) | > 100 µM (inactive) | > 100 µM (inactive) | > 100 µM (inactive) | > 100 µM (inactive) |  | > 100 µM (inactive) | > 100 µM (inactive) | 
Oc1c(Br)cc(Br)cc1CN(Cc1cc(Br)cc(Br)c1O)C1CCCCC1 | 31.7 µM (inactive) | 20.2 µM (inactive) | 37.6 µM (inactive) | 30.9 µM (inactive) | 59.4 µM (inactive) | 29.7 µM (inactive) | 31.9 µM (inactive) | 26.7 µM (inactive) | 21.1 µM (inactive) | 33.4 µM (inactive) | 31.6 µM (inactive) | 14.7 µM (inactive) | 15.1 µM (inactive) | 32.4 µM (inactive) | 46.9 µM (inactive) | 30.2 µM (inactive) |  | 24.6 µM (inactive) | 31.9 µM (inactive)
CCC(C)C(CC(=O)N1CCCC1C(=O)NC(C(=O)NC(C(=O)NCC(=O)NC(CC(N)=O)C(=O)NC(C(=O)NC(C(=O)NC(CCCCN)C(N)=O)C(C)CC)C(C)CC)C(C)C)C(C)CC)NC(=O)C(N)C(C)CC (stereo not drawn) (H-I[β3hI]PIVGNIIK-NH2; configuration not given here) | > 50 µM (inactive) | > 50 µM (inactive) | > 50 µM (inactive) | > 50 µM (inactive) | > 50 µM (inactive) | > 50 µM (inactive) | > 50 µM (inactive) | > 50 µM (inactive) | > 50 µM (inactive) | > 50 µM (inactive) |  | > 50 µM (inactive) | > 50 µM (inactive) | > 50 µM (inactive) | > 50 µM (inactive) | > 50 µM (inactive) | > 50 µM (inactive) |  | > 50 µM (inactive)
Cc1cc(=O)[nH]c(-n2[nH]c(C)c(CCO)c2=O)n1 | > 100 µM (inactive) | > 100 µM (inactive) | > 100 µM (inactive) | > 100 µM (inactive) | > 100 µM (inactive) | > 100 µM (inactive) | > 100 µM (inactive) | > 100 µM (inactive) | > 100 µM (inactive) | > 100 µM (inactive) | > 100 µM (inactive) | > 100 µM (inactive) | > 100 µM (inactive) | > 100 µM (inactive) | > 100 µM (inactive) | > 100 µM (inactive) | > 100 µM (inactive) |  | > 100 µM (inactive)
CC(C)=C=CP(=O)(O)c1ccccc1 |  | > 100 µM (inactive) | > 100 µM (inactive) | > 100 µM (inactive) | > 100 µM (inactive) | > 100 µM (inactive) | > 100 µM (inactive) | > 100 µM (inactive) | > 100 µM (inactive) | > 100 µM (inactive) | > 100 µM (inactive) | > 100 µM (inactive) | > 100 µM (inactive) | > 100 µM (inactive) | > 100 µM (inactive) |  | > 100 µM (inactive) | > 100 µM (inactive) | > 100 µM (inactive)
Oc1cc(CF)nc(S)n1 | > 100 µM (inactive) |  | > 100 µM (inactive) | > 100 µM (inactive) | > 100 µM (inactive) | > 100 µM (inactive) | > 100 µM (inactive) | > 100 µM (inactive) | > 100 µM (inactive) | > 100 µM (inactive) | > 100 µM (inactive) |  | > 100 µM (inactive) | > 100 µM (inactive) | > 100 µM (inactive) |  |  | > 100 µM (inactive) | > 100 µM (inactive)
CC(NC(=O)Cc1ccc(OP(=O)(OCc2ccc([N+](=O)[O-])o2)N(C)CCCCCl)cc1)c1ccc(OCC2CCCCC2)c(C(N)=O)c1 (stereo not drawn) | 2.58 µM (inactive) | 2.26 µM (inactive) | 3.01 µM (inactive) | 1.87 µM (inactive) | 2.48 µM (inactive) | 3.45 µM (inactive) | 2.4 µM (inactive) | 3.01 µM (inactive) | 2.88 µM (inactive) | 1.85 µM (inactive) | 2.77 µM (inactive) | 1.63 µM (inactive) | 1.66 µM (inactive) | 1.18 µM (inactive) | 2.16 µM (inactive) | 0.574 µM (active) | 2.02 µM (inactive) |  | 1.74 µM (inactive)
CCN(CCCN(CC)C(=O)Nc1c(C)cccc1C)C(=O)Nc1c(C)cccc1C | 92.3 µM (inactive) | > 100 µM (inactive) | > 100 µM (inactive) | > 100 µM (inactive) | > 100 µM (inactive) | > 100 µM (inactive) | > 100 µM (inactive) | > 100 µM (inactive) | > 100 µM (inactive) | > 100 µM (inactive) | > 100 µM (inactive) | > 100 µM (inactive) |  | 35.4 µM (inactive) | > 100 µM (inactive) | > 100 µM (inactive) |  | 40.3 µM (inactive) | > 100 µM (inactive)
Clc1ccc(Cl)c(Nc2ccnc(SCc3ccccc3)n2)c1 | > 100 µM (inactive) | > 100 µM (inactive) | > 100 µM (inactive) | > 100 µM (inactive) |  | > 100 µM (inactive) | > 100 µM (inactive) | > 100 µM (inactive) | > 100 µM (inactive) | > 100 µM (inactive) | > 100 µM (inactive) | > 100 µM (inactive) | > 100 µM (inactive) | 32.4 µM (inactive) | > 100 µM (inactive) | 99.8 µM (inactive) | > 100 µM (inactive) | > 100 µM (inactive) | 46.6 µM (inactive)
COc1ccc(CCN2CCN(CCCc3ccccc3)CC2)cc1 | 55.6 µM (inactive) | > 100 µM (inactive) | 77.1 µM (inactive) | > 100 µM (inactive) | > 100 µM (inactive) | > 100 µM (inactive) | 72.6 µM (inactive) | > 100 µM (inactive) | > 100 µM (inactive) | > 100 µM (inactive) | 38.6 µM (inactive) | 22.9 µM (inactive) | 80 µM (inactive) | 34 µM (inactive) | 71.6 µM (inactive) | > 100 µM (inactive) | > 100 µM (inactive) |  | > 100 µM (inactive)
COC(=O)c1cc(C(=O)OC)cc(-c2ccc3c(c2)-c2nc4c(c(-c5ccc(OC)cc5)c2CC3)CCc2ccc(-c3cc(C(=O)OC)cc(C(=O)OC)c3)cc2-4)c1 | > 100 µM (inactive) | > 100 µM (inactive) | 16 µM (inactive) | > 100 µM (inactive) | > 100 µM (inactive) |  | > 100 µM (inactive) | > 100 µM (inactive) | > 100 µM (inactive) | > 100 µM (inactive) | 0.061 µM (active) | > 100 µM (inactive) | > 100 µM (inactive) | > 100 µM (inactive) | > 100 µM (inactive) | > 100 µM (inactive) |  | > 100 µM (inactive) | 
